Laboratory results as given in BigSolDB 2.1.

## CCCCC1=NC2(CCCC2)C(=O)N1Cc1ccc(-c2ccccc2-c2nn[nH]n2)cc1
In 1,4-dioxane, 287.9 K
  solubility (mole fraction): 0.000466
In 1,4-dioxane, 293.45 K
  solubility (mole fraction): 0.000634
In 1,4-dioxane, 298 K
  solubility (mole fraction): 0.000832
In 1,4-dioxane, 303.65 K
  solubility (mole fraction): 0.00112
In 1,4-dioxane, 308.2 K
  solubility (mole fraction): 0.00142
In 1,4-dioxane, 312.9 K
  solubility (mole fraction): 0.00183
In 1,4-dioxane, 318.05 K
  solubility (mole fraction): 0.00227
In 1,4-dioxane, 322.85 K
  solubility (mole fraction): 0.00278
In THF, 278.3 K
  solubility (mole fraction): 0.00127
In THF, 282.85 K
  solubility (mole fraction): 0.00152
In THF, 288.1 K
  solubility (mole fraction): 0.00184
In THF, 292.95 K
  solubility (mole fraction): 0.00229
In THF, 297.7 K
  solubility (mole fraction): 0.00277
In THF, 303.15 K
  solubility (mole fraction): 0.00332
In THF, 308.05 K
  solubility (mole fraction): 0.00396
In THF, 312.7 K
  solubility (mole fraction): 0.00479
In THF, 318.35 K
  solubility (mole fraction): 0.00581
In THF, 322.75 K
  solubility (mole fraction): 0.00687
In acetone, 278.35 K
  solubility (mole fraction): 0.000284
In acetone, 283.15 K
  solubility (mole fraction): 0.000364
In acetone, 288.35 K
  solubility (mole fraction): 0.000444
In acetone, 293.6 K
  solubility (mole fraction): 0.00053
In acetone, 298.25 K
  solubility (mole fraction): 0.000678
In acetone, 302.95 K
  solubility (mole fraction): 0.000861
In acetone, 308.4 K
  solubility (mole fraction): 0.00105
In acetone, 312.75 K
  solubility (mole fraction): 0.00129
In acetone, 318.55 K
  solubility (mole fraction): 0.00158
In acetone, 323.1 K
  solubility (mole fraction): 0.00192
In chloroform, 277.7 K
  solubility (mole fraction): 0.0012
In chloroform, 283.3 K
  solubility (mole fraction): 0.00131
In chloroform, 287.7 K
  solubility (mole fraction): 0.00146
In chloroform, 292.7 K
  solubility (mole fraction): 0.00161
In chloroform, 297.75 K
  solubility (mole fraction): 0.00179
In chloroform, 302.85 K
  solubility (mole fraction): 0.00201
In chloroform, 307.8 K
  solubility (mole fraction): 0.00225
In chloroform, 313.4 K
  solubility (mole fraction): 0.00259
In chloroform, 317.8 K
  solubility (mole fraction): 0.00294
In chloroform, 323 K
  solubility (mole fraction): 0.00335
In ethanol, 278.6 K
  solubility (mole fraction): 0.000333
In ethanol, 283.55 K
  solubility (mole fraction): 0.000489
In ethanol, 288.5 K
  solubility (mole fraction): 0.000627
In ethanol, 292.7 K
  solubility (mole fraction): 0.000809
In ethanol, 297.8 K
  solubility (mole fraction): 0.00106
In ethanol, 303.05 K
  solubility (mole fraction): 0.00122
In ethanol, 308.5 K
  solubility (mole fraction): 0.00159
In ethanol, 313.3 K
  solubility (mole fraction): 0.0021
In ethanol, 318.5 K
  solubility (mole fraction): 0.00263
In ethanol, 323.6 K
  solubility (mole fraction): 0.00341
